pIC50: −log10 of the molar value.

This passage reports IC50 results from patent US9783536B2, “Nitrogen-containing heterocyclic compound or salt thereof” (FUJIFILM Corporation, priority 2013, dated 2017).

Test [1] concerns the target T1, human PI3Kα protein (Homo sapiens, UniProt P42336).
T1 construct: purchased Carna Biosciences, Inc; host or cells: baculovirus expression system
Description: PI3Kα enzyme assay (ADP-Glo). As to conditions: read-out: PI3Kα enzyme inhibitory activity. Type of test: biochemical. An outline of the steps: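 Biotinylated human PI3Kα (baculovirus-expressed, 4.5 nmol/L) pre-incubated 15 min with compound in Tris-HCl pH 7.5, MgCl2, BSA; reaction 60 min at 25° C with 50 μmol/L PIP2 and 100 μmol/L ATP final. ADP quantified by ADP-Glo luminescence; IC50 calculated.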

The target of test [2] is T2, GST fusion human ERK2 protein (Homo sapiens, UniProt P28482).
T2 construct: purchased Carna Biosciences, Inc; host or cells: E. coli expression system
Description: ERK2 enzyme assay (2). It is filed as biochemical. As to conditions: ERK2 enzyme assay (2); read-out: ERK2 enzyme inhibitory activity (2). A digest of the protocol:
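IC50 values come from mobility-shift measurement of phosphorylated versus unphosphorylated 5-FAM peptide substrate after EDTA quench. Beforehand, compound and 1.25 nmol/L E. coli-expressed GST–human ERK2 stood 15 min at room temperature (pH 7.5), then 1 mmol/L ATP and 4.25 μmol/L substrate (final) were added for 120 min at 25 °C.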

T2 sequence (P28482 whole entry, the tested form may be a part): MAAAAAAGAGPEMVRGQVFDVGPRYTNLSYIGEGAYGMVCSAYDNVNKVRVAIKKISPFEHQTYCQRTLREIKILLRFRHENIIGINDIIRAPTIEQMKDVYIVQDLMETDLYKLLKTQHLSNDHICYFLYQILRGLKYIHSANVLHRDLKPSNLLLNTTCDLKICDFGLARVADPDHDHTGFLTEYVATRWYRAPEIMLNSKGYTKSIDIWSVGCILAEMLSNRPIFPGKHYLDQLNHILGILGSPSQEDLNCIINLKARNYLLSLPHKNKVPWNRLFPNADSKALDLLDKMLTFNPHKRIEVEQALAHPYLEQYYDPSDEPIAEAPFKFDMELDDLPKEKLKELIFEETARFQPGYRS
T1 sequence (P42336 whole entry): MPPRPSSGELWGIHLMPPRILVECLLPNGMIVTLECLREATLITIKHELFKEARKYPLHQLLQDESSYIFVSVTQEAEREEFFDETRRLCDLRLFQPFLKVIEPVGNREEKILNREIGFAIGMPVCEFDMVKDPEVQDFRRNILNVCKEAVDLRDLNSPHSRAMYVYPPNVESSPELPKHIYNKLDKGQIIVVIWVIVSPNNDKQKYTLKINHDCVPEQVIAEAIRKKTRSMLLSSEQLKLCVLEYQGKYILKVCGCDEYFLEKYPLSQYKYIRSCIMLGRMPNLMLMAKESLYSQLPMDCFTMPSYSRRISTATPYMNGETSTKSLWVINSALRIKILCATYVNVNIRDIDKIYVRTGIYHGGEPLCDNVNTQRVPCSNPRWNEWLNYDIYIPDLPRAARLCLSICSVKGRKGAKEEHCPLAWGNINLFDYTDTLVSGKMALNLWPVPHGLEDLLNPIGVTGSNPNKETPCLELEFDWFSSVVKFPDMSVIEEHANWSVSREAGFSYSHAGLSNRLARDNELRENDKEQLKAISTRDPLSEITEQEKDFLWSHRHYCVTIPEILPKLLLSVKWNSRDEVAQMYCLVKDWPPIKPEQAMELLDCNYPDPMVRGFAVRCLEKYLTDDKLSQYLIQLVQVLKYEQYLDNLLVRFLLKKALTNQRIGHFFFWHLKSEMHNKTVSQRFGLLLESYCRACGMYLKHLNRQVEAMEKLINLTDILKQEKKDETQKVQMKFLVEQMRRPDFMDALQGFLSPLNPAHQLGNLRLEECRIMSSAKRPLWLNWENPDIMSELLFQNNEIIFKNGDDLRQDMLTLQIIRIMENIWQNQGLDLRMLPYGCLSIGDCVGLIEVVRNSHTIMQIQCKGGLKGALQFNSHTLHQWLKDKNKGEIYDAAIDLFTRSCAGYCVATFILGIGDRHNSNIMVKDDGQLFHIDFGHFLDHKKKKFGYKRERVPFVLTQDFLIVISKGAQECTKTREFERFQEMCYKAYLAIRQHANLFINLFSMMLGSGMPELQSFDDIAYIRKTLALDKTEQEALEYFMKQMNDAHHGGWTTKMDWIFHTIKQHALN
T1 sequence (P27986 whole entry partner): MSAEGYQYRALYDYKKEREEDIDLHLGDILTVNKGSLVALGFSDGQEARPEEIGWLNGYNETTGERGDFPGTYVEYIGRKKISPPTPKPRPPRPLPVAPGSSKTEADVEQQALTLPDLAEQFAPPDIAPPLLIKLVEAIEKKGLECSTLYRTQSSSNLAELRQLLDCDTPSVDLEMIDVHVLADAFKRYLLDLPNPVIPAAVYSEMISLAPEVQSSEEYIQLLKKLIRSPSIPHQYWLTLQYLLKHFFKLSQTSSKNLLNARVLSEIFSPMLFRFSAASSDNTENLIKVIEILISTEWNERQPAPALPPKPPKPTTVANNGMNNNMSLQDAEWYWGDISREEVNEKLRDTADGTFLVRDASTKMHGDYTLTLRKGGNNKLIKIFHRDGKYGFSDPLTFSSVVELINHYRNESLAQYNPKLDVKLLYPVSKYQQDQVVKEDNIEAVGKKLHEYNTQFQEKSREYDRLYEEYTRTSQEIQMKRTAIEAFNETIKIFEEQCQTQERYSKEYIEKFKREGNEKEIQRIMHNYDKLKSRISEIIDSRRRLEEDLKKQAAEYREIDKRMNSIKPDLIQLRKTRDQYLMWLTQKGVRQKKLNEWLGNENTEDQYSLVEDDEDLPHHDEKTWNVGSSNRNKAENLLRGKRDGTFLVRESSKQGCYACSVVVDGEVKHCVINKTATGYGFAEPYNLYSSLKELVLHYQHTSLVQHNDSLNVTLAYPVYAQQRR

As for `CC(C)c1cnnc(Nc2ccc3ncc(-c4cnn(CC5CN(C)CCO5)c4)cc3n2)c1` (centres unmarked) [Example 0728, N-(5-isopropylpyridazin-3-yl)-7-(1-((4-methylmorpholin-2-yl)methyl)-1H-pyrazol-4-yl)-1,5-naphthyridine-2-amine], the pIC50 in test [1] and in test [2] was more than 6.00 in each case.

Regarding `CC(C)c1cnnc(Nc2ccc3ncc(-c4cnn(CC(O)CN5CCOCC5)c4)cc3n2)c1` (centres unmarked) [Example 0729], the pIC50 in test [1] and in test [2] was more than 6.00 throughout.

As for `COC(CN1CCOCC1)Cn1cc(-c2cnc3ccc(Nc4cc(C(C)C)cnn4)nc3c2)cn1` (centres unmarked) [Example 0730], the pIC50 in test [1] and in test [2] was more than 6.00 in each case.

For the compound `CC(C)c1cnnc(Nc2ccc3ncc(-c4cnn(CC(F)(F)CN5CCOCC5)c4)cc3n2)c1` [Example 0731], the pIC50 in test [1] and in test [2] was more than 6.00 each time.

Regarding `CC(C)c1cnnc(Nc2ccc3ncc(-c4cnn(CC(CN5CCOCC5)OCc5ccccc5)c4)cc3n2)c1` (centres unmarked) [Example 0732], the pIC50 in test [1] and in test [2] was more than 6.00 in each case.

Regarding `Cc1ccc(-c2nn(C)cc2-c2cnc3ccc(Nc4cc(C(C)C)cnn4)nc3c2)cn1` [Example 0734], the pIC50 in test [1] and in test [2] was more than 6.00 in each case.

With `CC(C)c1cnnc(Nc2ccc3ncc(-c4cnn(CC(F)(F)CN5CCCC5)c4)cc3n2)c1` [Example 0735, 7-(1-(2,2-Difluoro-3-(pyrrolidin-1-yl)propyl)-1H-pyrazol-4-yl)-N-(5-isopropylpyridazin-3-yl)-1,5-naphthyridine-2-amine], the pIC50 in test [1] and in test [2] was more than 6.00 in each case.

On to `Cc1ccncc1-c1nn(C)cc1-c1cnc2ccc(Nc3cc(C(C)C)cnn3)nc2c1` [Example 0736], for which the pIC50 in test [1] was more than 6.00; in test [2] it was 5.00 to 6.00.

Take `CC(C)c1cnnc(Nc2ccc3ncc(-c4cnn(CCOC5CN(C(=O)OC(C)(C)C)C5)c4)cc3n2)c1` [Example 0739, tert-Butyl 3-(2-(4-(6-((5-isopropylpyridazin-3-yl)amino)-1,5-naphthyridin-3-yl)-1H-pyrazol-1-yl)ethoxy)azetidine-1-carboxylate]: the figures for the pIC50 in test [1] and in test [2] were 5.00 to 6.00 and more than 6.00, respectively.

With `CC(C)c1cnnc(Nc2ccc3ncc(-c4cnn(CCOC5CNC5)c4)cc3n2)c1` [Example 0740, 7-(1-(2-(azetidin-3-yloxy)ethyl)-1H-pyrazol-4-yl)-N-(5-isopropylpyridazin-3-yl)-1,5-naphthyridine-2-amine], the pIC50 in test [1] and in test [2] was more than 6.00 each time.

`CC(C)c1cnnc(Nc2ccc3ncc(-c4cnn(CCOC5CN(C)C5)c4)cc3n2)c1` [Example 0741, N-(5-isopropylpyridazin-3-yl)-7-(1-(2-((1-methylazetidin-3-yl)oxy)ethyl)-1H-pyrazol-4-yl)-1,5-naphthyridine-2-amine]: the pIC50 in test [1] and in test [2] was more than 6.00 each time.

Take `CC(C)c1cnnc(Nc2ccc3ncc(-c4cnn(CCOC5CN(C(C)C)C5)c4)cc3n2)c1` [Example 0742]: the pIC50 in test [1] and in test [2] was more than 6.00 in each case.

As for `CC(C)c1cnnc(Nc2ccc3ncc(-c4cnn(CCOC5CN(Cc6ccccc6)C5)c4)cc3n2)c1` [Example 0743], the pIC50 in test [1] and in test [2] was more than 6.00 in each case.

For the compound `COCCOC(CN1CCOCC1)Cn1cc(-c2cnc3ccc(Nc4cc(C(C)C)cnn4)nc3c2)cn1` (centres unmarked) [Example 0744], the pIC50 in test [1] and in test [2] was more than 6.00 in each case.

Turning to `CC(C)c1cnnc(Nc2ccc3ncc(-c4cnn(CC(CN5CCOCC5)OCC5CC5)c4)cc3n2)c1` (centres unmarked) [Example 0745], the pIC50 in test [1] and in test [2] was more than 6.00 each time.

Turning to `CCN1CC(OCCn2cc(-c3cnc4ccc(Nc5cc(C(C)C)cnn5)nc4c3)cn2)C1` [Example 0746, 7-(1-(2-((l-Ethylazetidin-3-yl)oxy)ethyl)-1H-pyrazol-4-yl)-N-(5-isopropylpyridazin-3-yl)-1,5-naphthyridine-2-amine], the pIC50 in test [1] and in test [2] was more than 6.00 throughout.

As for `CC(C)c1cnnc(Nc2ccc3ncc(-c4cnn(CCOC5CN(CC(F)F)C5)c4)cc3n2)c1` [Example 0747, 7-(1-(2-((1-(2,2-difluoroethyl)azetidin-3-yl)oxy)ethyl)-1H-pyrazol-4-yl)-N-(5-isopropylpyridazin-3-yl)-1,5-naphthyridine-2-amine], the pIC50 in test [1] and in test [2] was more than 6.00 throughout.

With `Cc1cc(-c2nn(C)cc2-c2cnc3ccc(Nc4cc(C(C)C)cnn4)nc3c2)cc(C)n1` [Example 0748, 7-(3-(2,6-Dimethylpyridin-4-yl)-1-methyl-1H-pyrazol-4-yl)-N-(5-isopropylpyridazin-3-yl)-1,5-naphthyridine-2-amine], the pIC50 in test [1] and in test [2] was more than 6.00 in each case.

`CC(C)c1cnnc(Nc2ccc3ncc(-c4cn(C)nc4-c4ccnc(N5CCOCC5)c4)cc3n2)c1` [Example 0749, N-(5-isopropylpyridazin-3-yl)-7-(1-methyl-3-(2-morpholinopyridin-4-yl)-1H-pyrazol-4-yl)-1,5-naphthyridine-2-amine]: the pIC50 in test [1] and in test [2] was more than 6.00 throughout.

As for `COCCOc1cc(-c2nn(C)cc2-c2cnc3ccc(Nc4cc(C(C)C)cnn4)nc3c2)ccn1` [Example 0750, N-(5-isopropylpyridazin-3-yl)-7-(3-(2-(2-methoxyethoxyl)pyridin-4-yl)-1-methyl-1H-pyrazol-4-yl)-1,5-naphthyridine-2-amine], the pIC50 in test [1] and in test [2] was more than 6.00 throughout.

With `CC(C)c1cnnc(Nc2ccc3ncc(-c4cn(C)nc4-c4ccnc(OCCN(C)C)c4)cc3n2)c1` [Example 0751], the pIC50 in test [1] and in test [2] was more than 6.00 each time.

In the case of `CC(C)c1cnnc(Nc2ccc3ncc(-c4cn(C)nc4-c4ccnc(N)c4)cc3n2)c1` [Example 0752, 7-(3-(2-aminopyridin-4-yl)-1-methyl-1H-pyrazol-4-yl)-N-(5-isopropylpyridazin-3-yl)-1,5-naphthyridine-2-amine], the pIC50 in test [1] and in test [2] was more than 6.00 each time.

On to `CC(=O)N1CC(OCCn2cc(-c3cnc4ccc(Nc5cc(C(C)C)cnn5)nc4c3)cn2)C1` [Example 0754, 1-(3-(2-(4-(6-((5-isopropylpyridazin-3-yl)amino)-1,5-naphthyridin-3-yl)-1H-pyrazol-1-yl)ethoxy)azetidin-1-yl)ethanone], for which the pIC50 in test [1] and in test [2] was more than 6.00 each time.

Turning to `CC(C)c1cnnc(Nc2ccc3ncc(-c4cnn(CCOC5CN(S(C)(=O)=O)C5)c4)cc3n2)c1` [Example 0755, N-(5-isopropylpyridazin-3-yl)-7-(1-(2-((1-(methylsulfonyl)azetidin-3-yl)oxy)ethyl)-1H-pyrazol-4-yl)-1,5-naphthyridine-2-amine], the pIC50 in test [1] and in test [2] was more than 6.00 throughout.

Turning to `CC(C)c1cnnc(Nc2ccc3ncc(-c4ccnn4C)cc3n2)c1` [Example 0758], the pIC50 in test [1] is 5.00 to 6.00; in test [2] it was more than 6.00.

For the compound `Cn1cc(-c2cnc3ccc(Nc4cc(C5CCOCC5)cnn4)nc3c2)cn1` [Example 0759], the pIC50 in test [1] and in test [2] was more than 6.00 in each case.

Take `Cc1nn(C)cc1-c1cnc2ccc(Nc3cc(C4CCOCC4)cnn3)nc2c1` [Example 0760, 7-(1,3-Dimethyl-1H-pyrazol-4-yl)-N-(5-(tetrahydro-2H-pyran-4-yl)pyridazin-3-yl)-1,5-naphthyridine-2-amine]: the pIC50 in test [1] and in test [2] was more than 6.00 each time.

For the compound `CC(C)c1cnnc(Nc2ccc3ncc(N4CCOC[C@H]4C)cc3n2)c1` [Example 0762, (R)-N-(5-isopropylpyridazin-3-yl)-7-(3-methylmorpholino)-1,5-naphthyridine-2-amine], the pIC50 in test [1] and in test [2] was more than 6.00 each time.

On to `CC(C)c1cnnc(Nc2ccc3ncc(N4CCOC[C@@H]4C)cc3n2)c1` [Example 0764], for which the pIC50 in test [1] and in test [2] was more than 6.00 each time.

Turning to `CC(C)c1cnnc(Nc2ccc3ncc(-c4cc(N)ncn4)cc3n2)c1` [Example 0765], the pIC50 in test [1] and in test [2] was more than 6.00 each time.

Regarding `CC(C)c1cnnc(Nc2ccc3ncc(-c4ccnc(N)n4)cc3n2)c1` [Example 0766], the pIC50 in test [1] and in test [2] was more than 6.00 each time.

As to `Cc1ccc(-c2nn(C)cc2-c2cnc3ccc(Nc4cc(C(C)C)cnn4)nc3c2)cc1` [Example 0767, N-(5-isopropylpyridazin-3-yl)-7-(1-methyl-3-(4-methylphenyl)-1H-pyrazol-4-yl)-1,5-naphthyridine-2-amine], the pIC50 in test [1] and in test [2] was more than 6.00 each time.

On to `CC(C)c1cnnc(Nc2ccc3ncc(-c4cn(C)nc4-c4ccc(CN(C)C)cc4)cc3n2)c1` [Example 0768], for which the pIC50 in test [1] was more than 6.00; in test [2], 5.00 to 6.00.

On to `CCC(CC)c1cnnc(Nc2ccc3ncc(-c4cn(C)nc4C)cc3n2)c1` [Example 0769], for which the pIC50 in test [1] and in test [2] was more than 6.00 each time.

Take `CCC(CC)c1cnnc(Nc2ccc3ncc(-c4cn(C)nc4-c4ccncc4)cc3n2)c1` [Example 0770]: the pIC50 in test [1] and in test [2] was more than 6.00 in each case.

As for `CCn1cc(-c2cnc3ccc(Nc4cc(C(C)C)cnn4)nc3c2)c(-c2ccncc2)n1` [Example 0771], the pIC50 in test [1] and in test [2] was more than 6.00 in each case.

On to `CC(C)c1cnnc(Nc2ccc3ncc(-c4cn(C)nc4C4CCOCC4)cc3n2)c1` [Example 0772], for which the pIC50 in test [1] and in test [2] was more than 6.00 throughout.
